Reference: patent publication US20210246122A1, “Triazine Compounds and Uses Thereof” (Aduro Biotech, Inc., priority 2018, published 2021)

Legend:
[1] = molecular target: T1, Human cGAS amino acids 155-522 (Homo sapiens, UniProt Q8N884); assay: cGAS activity assay (DNA-activated cGAS, remaining ATP measured by Kinase-Glo Max luciferase assay); type: biochemical; conditions: 300 nM purified cGAS, 1 μM dsDNA, 250 μM ATP, 100 μM GTP, 37° C. for 1.25 hours
T1 construct: hexahistidine tag (N, cleaved yes); made in house; host or cells: E. coli BL21 DE3 Rosetta 2
T1 sequence (Q8N884 157-522): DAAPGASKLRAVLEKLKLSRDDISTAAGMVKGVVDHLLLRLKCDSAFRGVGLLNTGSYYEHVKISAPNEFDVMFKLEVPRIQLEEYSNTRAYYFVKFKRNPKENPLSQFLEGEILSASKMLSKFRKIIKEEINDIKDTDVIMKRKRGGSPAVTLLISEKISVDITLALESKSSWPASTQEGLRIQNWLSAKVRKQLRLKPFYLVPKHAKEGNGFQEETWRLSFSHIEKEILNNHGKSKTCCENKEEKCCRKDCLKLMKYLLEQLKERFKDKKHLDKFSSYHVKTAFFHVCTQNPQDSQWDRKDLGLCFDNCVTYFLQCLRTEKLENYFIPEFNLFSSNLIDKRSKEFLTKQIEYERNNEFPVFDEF
Procedure: IC50 values were determined as follows:
Human cGAS sequence encoding amino acids 155-522 was cloned into a pET (EMD Millipore) based expression plasmid. The resulting construct contained a tandem N-terminal hexahistidine tag, maltose binding protein fusion followed by a tobacco etch virus protease cleavable linker preceding cGAS amino acids 155-522.
Construct sequence: Amino acids 155-522, Human cGAS
Protein was expressed and purified from E. coli BL21 DE3 Rosetta 2 (EMD Millipore) cells using standard techniques. Cells were grown in 2× yeast extract tryptone medium and expression was initiated via the addition of isopropyl β-D-1-thiogalactopyranoside. Expression proceeded overnight at 18° C. Cells were harvested by centrifugation and subsequently lysed via sonication. Insoluble fraction was removed by centrifugation. Maltose binding protein (MBP) fusion proteins were purified on a dextrin sepharose column (GE Healthcare) and the MBP tag was removed using tobacco etch virus protease overnight during dialysis. Protein was further purified on a heparin column (GE Healthcare) and eluted using a NaCl gradient. Column fraction were pooled and further purified on a Superdex 75 gel filtration column (GE Healthcare). Protein was quantified using 280 nm absorbance. Protein was then flash frozen in liquid nitrogen and stored at −80° C. until use.
Potential antagonists were diluted in 100% dimethyl sulfoxide and added to the reaction. Final dimethyl sulfoxide concentration was 5%. The compounds were tested from 1 μM with either 3- or 4-fold serial dilutions down to 0.000051 or 0.000004 μM respectively.
Two complementary DNA oligos (IDT DNA) were annealed by slow cooling from 95° C. The resulting double stranded DNA was used to activate cGAS.
Reactions were performed at 37° C. for 1.25 hours. Reaction buffer: 20 mM Tris HCl pH 9, 100 mM NaCl, 5 mM MgCl2, 0.1 mg/ml bovine gamma globulin, 250 μM adenosine triphosphate, 100 μM guanosine triphosphate, 0.5 mM Tris(2-carboxyethyl)phosphine hydrochloride, 1 μM double stranded DNA and 300 nM purified cGAS protein.
Reactions were stopped and ATP levels in the reaction were measured using a luciferase based assay. Promega Kinase-Glo Max Assay. Luminescence was measured on a plate reader (Molecular Devices). Values were normalized to control wells lacking compound.

cGAS/STING pathway = assay: THP1 cell-based cGAS/STING pathway activity assay (luciferase reporter linked to IRF-3 activation); conditions: Homo sapiens, THP-1; THP1 cells, IRF-3 linked luciferase reporter
Procedure: A cellular assay can be used to assess the compounds of the invention for their ability to inhibit the cGAS/STING pathway. Cells that express a luciferase-based reporter that is linked to IRF-3 activation are used to determine response as a function of compound concentration. Such an assay is described in Vincent et al., Nature Communications 2017, 8(1):750, doi: 10.1038/s41467-017-00833-9. Compounds of the invention were assessed using similar assay methods in a THP1 cell assay to generate IC50 values as provided in the following Table 8. In this table, activity level “A” indicates an IC50 value less than 20 μM, “B” indicates an IC50 value between 20 and 100 μM, and “C” indicates an IC50 value above the upper limit of the assay (100 μM), or where an IC50 value could not be generated from the data.

Structure (SMILES) | IC50 [1] | IC50 (cGAS/STING pathway)
COC(=O)[C@H](Cc1ccccc1)Nc1nc(NCc2nc3cc(F)ccc3[nH]2)nc(Nc2cccc(CN3CCNCC3)c2)n1 [TA1064, methyl (4-(((5-fluoro-1H-benzo[d]imidazol-2-yl)methyl)amino)-6-((3-(piperazin-1-ylmethyl)phenyl)amino)-1,3,5-triazin-2-yl)phenylalaninate] | > 250 µM | 
COC(=O)[C@H](Cc1ccc(C#N)cc1)Nc1nc(NCc2nnn[nH]2)nc(Nc2cccc(CN3CCNCC3)c2)n1 [TA1068, methyl (S)-2-((4-(((1H-tetrazol-5-yl)methyl)amino)-6-((3-(piperazin-1-ylmethyl)phenyl)amino)-1,3,5-triazin-2-yl)amino)-3-(4-cyanophenyl)propanoate] | > 250 µM | 
COC(=O)[C@H](Cc1ccc(C#N)cc1)Nc1nc(NCc2nnn[nH]2)nc(Nc2cccc(CN3CCN(C(=O)c4nccnc4O)CC3)c2)n1 [TA1069, methyl (S)-2-((4-(((1H-tetrazol-5-yl)methyl)amino)-6-((3-((4-(3-hydroxypyrazine-2-carbonyl)piperazin-1-yl)methyl)phenyl)amino)-1,3,5-triazin-2-yl)amino)-3-(4-cyanophenyl)propanoate] | > 250 µM | 
COC(=O)[C@H](CC1CCCCC1)Nc1nc(NCc2nc3cc(F)ccc3[nH]2)nc(Nc2cccc(CN3CCN(C(=O)c4nccnc4O)CC3)c2)n1 [TA1072, methyl (S)-3-cyclohexyl-2-((4-(((5-fluoro-1H-benzo[d]imidazol-2-yl)methyl)amino)-6-((3-((4-(3-hydroxypyrazine-2-carbonyl)piperazin-1-yl)methyl)phenyl)amino)-1,3,5-triazin-2-yl)amino)propanoate] | < 20 µM | 
Cc1cc2nc(CN(C)c3nc(Nc4cccc(CN5CCN(S(=O)(=O)c6cnn(C)c6C)CC5)c4)nc(N[C@@H](Cc4ccc(C#N)cc4)C(=O)N(C)C)n3)[nH]c2cc1C [TA1073, (S)-3-(4-cyanophenyl)-2-((4-(((5,6-dimethyl-1H-benzo[d]imidazol-2-yl)methyl)(methyl)amino)-6-((3-((4-((1,5-dimethyl-1H-pyrazol-4-yl)sulfonyl)piperazin-1-yl)methyl)phenyl)amino)-1,3,5-triazin-2-yl)amino)-N,N-dimethylpropanamide] | > 250 µM | 
COC(=O)[C@H](Cc1ccc(C#N)cc1)Nc1nc(Nc2cccc(CN3CCN(C(=O)c4nccnc4O)CC3)c2)nc(OC)n1 [TA1074, methyl (S)-3-(4-cyanophenyl)-2-((4-((3-((4-(3-hydroxypyrazine-2-carbonyl)piperazin-1-yl)methyl)phenyl)amino)-6-methoxy-1,3,5-triazin-2-yl)amino)propanoate] | > 250 µM | 
COC(=O)[C@H](Cc1ccc(C#N)cc1)Nc1nc(Nc2cccc(CN3CCN(C=O)CC3)c2)nc(OC)n1 [TA1077, methyl (S)-3-(4-cyanophenyl)-2-((4-((3-((4-formylpiperazin-1-yl)methyl)phenyl)amino)-6-methoxy-1,3,5-triazin-2-yl)amino)propanoate] | > 250 µM | 

Next, values leading:

IC50 [1] | IC50 (cGAS/STING pathway) | Structure (SMILES)
< 20 µM | > 100 µM | COCCNC(=O)[C@H](Cc1ccc(C#N)cc1)Nc1nc(NCc2nc3cc(F)ccc3[nH]2)nc(Nc2cccc(CN3CCN(C(=O)c4nccnc4O)CC3)c2)n1 [TA1018, (S)-3-(4-cyanophenyl)-2-((4-(((5-fluoro-1H-benzo[d]imidazol-2-yl)methyl)amino)-6-((3-((4-(3-hydroxypyrazine-2-carbonyl)piperazin-1-yl)methyl)phenyl)amino)-1,3,5-triazin-2-yl)amino)-N-(2-methoxyethyl)propanamide]
< 20 µM | > 100 µM | COC(=O)[C@H](Cc1ccc(C#N)cc1)Nc1nc(NCc2nc3cc(F)ccc3[nH]2)nc(Nc2cccc(CN3CCN(C(=O)c4nccnc4O)CC3)c2)n1 [TA1020, methyl (S)-3-(4-cyanophenyl)-2-((4-(((5-fluoro-1H-benzo[d]imidazol-2-yl)methyl)amino)-6-((3-((4-(3-hydroxypyrazine-2-carbonyl)piperazin-1-yl)methyl)phenyl)amino)-1,3,5-triazin-2-yl)amino)propanoate]
< 20 µM | > 100 µM | CN(C)C(=O)[C@H](Cc1ccc(C#N)cc1)Nc1nc(NCc2nc3cc(F)ccc3[nH]2)nc(Nc2cccc(CN3CCN(C(=O)c4nccnc4O)CC3)c2)n1 [TA1021, (S)-3-(4-cyanophenyl)-2-((4-(((5-fluoro-1H-benzo[d]imidazol-2-yl)methyl)amino)-6-((3-((4-(3-hydroxypyrazine-2-carbonyl)piperazin-1-yl)methyl)phenyl)amino)-1,3,5-triazin-2-yl)amino)-N,N-dimethylpropanamide]
20 to 250 µM |  | COC(=O)[C@H](Cc1ccc(C#N)cc1)Nc1nc(NCc2nc3cc(Cl)ccc3[nH]2)nc(Nc2cccc(CN3CCNCC3)c2)n1 [TA1058, methyl (S)-2-((4-(((5-chloro-1H-benzo[d]imidazol-2-yl)methyl)amino)-6-((3-(piperazin-1-ylmethyl)phenyl)amino)-1,3,5-triazin-2-yl)amino)-3-(4-cyanophenyl)propanoate]
> 250 µM |  | COC(=O)[C@H](Cc1ccc(C#N)cc1)Nc1nc(NCc2nc3cc(Cl)ccc3[nH]2)nc(Nc2cccc(CN3CCN(C(=O)c4cccc(-n5cccn5)c4)CC3)c2)n1 [TA1060, methyl (S)-2-((4-((3-((4-(3-(1H-pyrazol-1-yl)benzoyl)piperazin-1-yl)methyl)phenyl)amino)-6-(((5-chloro-1H-benzo[d]imidazol-2-yl)methyl)amino)-1,3,5-triazin-2-yl)amino)-3-(4-cyanophenyl)propanoate]
20 to 250 µM |  | COC(=O)[C@H](Cc1ccc(C#N)cc1)Nc1nc(NCc2nc3cc(Cl)ccc3[nH]2)nc(Nc2cccc(CN3CCN(C=O)CC3)c2)n1 [TA1062, methyl (S)-2-((4-(((5-chloro-1H-benzo[d]imidazol-2-yl)methyl)amino)-6-((3-((4-formylpiperazin-1-yl)methyl)phenyl)amino)-1,3,5-triazin-2-yl)amino)-3-(4-cyanophenyl)propanoate]
> 250 µM |  | COC(=O)[C@H](Cc1ccc(C#N)cc1)Nc1nc(NCc2nc3cc(F)ccc3[nH]2)nc(Nc2cccc(CN3CCN(C(C)=O)CC3)c2)n1 [TA1075, methyl (S)-2-((4-((3-((4-acetylpiperazin-1-yl)methyl)phenyl)amino)-6-(((5-fluoro-1H-benzo[d]imidazol-2-yl)methyl)amino)-1,3,5-triazin-2-yl)amino)-3-(4-cyanophenyl)propanoate]
> 250 µM |  | COC(=O)[C@H](Cc1ccc(C#N)cc1)Nc1nc(Nc2cccc(CN3CCN(C(C)=O)CC3)c2)nc(N(Cc2nc3cc(F)ccc3[nH]2)C(C)=O)n1 [TA1076, methyl (S)-2-((4-((3-((4-acetylpiperazin-1-yl)methyl)phenyl)amino)-6-(N-((5-fluoro-1H-benzo[d]imidazol-2-yl)methyl)acetamido)-1,3,5-triazin-2-yl)amino)-3-(4-cyanophenyl)propanoate]
> 250 µM |  | COC(=O)[C@H](Cc1ccc(C#N)cc1)Nc1nc(NCc2nc3cc(F)ccc3[nH]2)nc(Nc2cccc(CN3CCN(C(=O)c4nccnc4OC)CC3)c2)n1 [TA1078, methyl (S)-3-(4-cyanophenyl)-2-((4-(((5-fluoro-1H-benzo[d]imidazol-2-yl)methyl)amino)-6-((3-((4-(3-methoxypyrazine-2-carbonyl)piperazin-1-yl)methyl)phenyl)amino)-1,3,5-triazin-2-yl)amino)propanoate]
> 250 µM |  | COC(=O)[C@H](Cc1ccc(C#N)cc1)Nc1nc(NCc2nc3cc(F)ccc3[nH]2)nc(Nc2cccc(CN3CCN(C(=O)C4CCN(S(C)(=O)=O)CC4)CC3)c2)n1 [TA1079, methyl (S)-3-(4-cyanophenyl)-2-((4-(((5-fluoro-1H-benzo[d]imidazol-2-yl)methyl)amino)-6-((3-((4-(1-(methylsulfonyl)piperidine-4-carbonyl)piperazin-1-yl)methyl)phenyl)amino)-1,3,5-triazin-2-yl)amino)propanoate]
